Measurements: patent US5691310A, “Methods of treatment using proANF peptides” (priority 1995, dated 1997)

Experiments:
[1] = tested on: renal medullary Na+-K+-ATPase; assay: inhibition of renal medullary Na+-K+-ATPase activity; assay type: biochemical; settings: for inhibition of renal medullary Na+-K+-ATPase activity: 10^-11 M
porcine aorta = assay: vasodilation of porcine aortic strips preconstricted with 0.3 micromolar phenylephrine; design: species or system pig; settings: for increase in cyclic GMP levels over baseline levels: associated with vasodilation of porcine aorta; for vasodilation: porcine aorta
Procedure: 30 Kg pigs are sacrificed, and aortic strips are harvested. The strips are attached to F-60 transducer (Narco-BioSystems, Houston, Tex.) and attached to a physiography (Narco-BioSystems) while being submerged in a muscle tissue bath comprising a Krebs Ringer solution at 37° C., with 95% 02 -5% CO2, bubbled through the bath. Percentage vasodilation is measured versus time (as reported in FIG. 1) after preconstriction with 0.3 micromolar phenylephrine.

[2] = tested on: particulate guanylate cyclase; assay: cyclic GMP / particulate guanylate cyclase activation in cultured smooth muscle cells and porcine aorta; assay type: cell-based; settings: cultured smooth muscle cells
Munich-Wistar rats = assay: rat clearance model (diuresis and salt excretion); assay type: in vivo
Procedure: The same three peptides and ANF from Example I are tested using the rat clearance model. Six control rats and six experimental Munich-Wistar rats, each weighing 150-200 grams, are used for each peptide, with catheters being placed in both jugular veins and in the femoral artery. The ureters are cannulated for simultaneous urine collections with femoral artery blood collections.
After inserting the catheters, a stabilization of one hour is allowed. A 10 μg/kg bolus of each of the respective human sequences of the peptides is given via the jugular vein to six experimental rats followed by a sustaining infusion of 0.1 μg/kg/min for 60 minutes. Blood and urine samples are collected at 20 minute intervals during this 60 minute infusion. In both the control and experimental animals, hematocrits and plasma sodium values remained at the same levels pre- and post-infusion while blood pressure decreased with each of these peptides (see Attachment B).

[3] = tested on: particulate guanylate cyclase; assay: particulate guanylate cyclase activity in the kidney; assay type: biochemical; settings: 1 μM; whole kidney homogenates, renal cortical and medullary membranes, isolated distal nephron
Procedure: Testing is also carried out to determine biologic effects of these peptides by measuring their effects on particulate guanylate activity in the kidney.

[4] = overcoming the negative ionotropic effect of Verapamil
healthy human subjects = assay: infusion into healthy human subjects; assay type: in vivo; settings: healthy humans; for urine volume / urine flow (in words): 100 ng/kg body wt per minute for 1 hour i.v.; for sodium excretion compared to baseline (in words): 100 ng/kg body wt per minute for 60 minutes; for systolic and diastolic blood pressures: 100 ng/kg/min i.v. for 60 minutes
Procedure: Infusion of these peptides into healthy human subjects was performed as follows: Human pro-ANF 1-30, pro-ANF 31-67, and pro-ANF 79-98, and hANF (i.e., pro-ANF […], were synthesized by Peninsula Laboratories (Belmont, Calif.). High pressure liquid chromatography (HPLC) analysis was performed on a sample of each of the four peptides to ensure purity. The peptides were dissolved in a sterile 0.9% saline solution to a concentration of 100 μg/ml and dispensed in 2 and 5 ml aliquots into sealed sterile vials. At the time of dispensing, randomly selected vials were tested for pyrogens and sterility. Prior to labeling the vials, the actual peptide content of the dispensed solution were determined by direct radioimmunoassay to account for any possible absorption of the respective peptides to the walls of the vials. All vials were then stored at -80° C. until thawed for individual study.
Normal healthy subjects were chosen on the basis of age (between 20 and 50 years), physical examination and biochemical screenings. The subjects consumed their normal diets prior to testing. The subjects fasted overnight and were tested in the morning in the seated position. Intravenous catheters were placed bilaterally for the administration of pro-hANF 1-30, pro-hANF 31-67, pro-hANF 79-98 and hANF [pro-hANF 99-126] and for blood sampling. After completion of a 45-minute equilibration period, there were three 60-minute phases of the study: baseline, experimental infusion (60 minutes) and recovery (3 hours). The baseline phase consisted of two 30 minute urine collection periods, the experimental phase consisted of three 20 minute urine and plasma collection periods, and the recovery phase consisted of two 30 minute urine and plasma collection periods each hour for three hours post-infusion. Urine output was replaced on a milliliter per milliliter basis throughout the study by administering oral water or orange juice. Urine samples were obtained by voiding at the designated collection periods.
The 36 subjects were divided into 6 groups. One group (i.e., the control group) received a placebo infusion of 0.9% sodium chloride during the experimental infusion phase. […] The four remaining groups of six subjects each received human pro-hANF 1-30, pro-hANF 31-67, pro-hANF 79-98 and hANF. The four groups received the peptides by continuous infusion at the rate of 0.1 μg/kg per minute. The volume administered per hour during the experimental infusion phase was 10 ml for all four peptides and the placebo. All infusions were given by a constant-rate infusion pump, with the final concentrations of prohANFs adjusted for the subjects' body weight. The subjects heart rate and cuff blood pressure were taken at 5 minute intervals throughout the study. The excreted urine was analyzed for sodium concentration.

[5] = tested on: human subjects with class II New York Heart Association congestive heart failure; assay: infusion into human subjects with congestive heart failure; assay type: in vivo; settings: for diuretic properties (in words): congestive heart failure patients; for urine output increase at the end of the 60 minute infusion: congestive heart failure, 0.1 μg/kg body wt/minute; for increase of sodium excretion: human subjects with congestive heart failure
Procedure: Human proANF's 1-30, 31-67, 79-98, and 99-126 (i.e., ANF) were infused into human subjects with class II New York Heart Association congestive heart failure. An identical protocol to that used in example V where these peptides were infused into healthy human subjects was utilized. (See Attachment C for a detailed description of this protocol). The human subjects with congestive heart failure received an identical dose (0.1 μg/kg body wt/minute for 60 minutes) that the healthy human subjects received.

[6] = target: particulate guanylate cyclase of porcine aorta and cultured smooth muscle cells (porcine (aorta); not stated for the cultured smooth muscle cells)
[7] = tested on: rat or other vertebrate species; assay: biologic effects of peptides of the rat ANF prohormone; assay type: in vivo; settings: peptides of the rat sequence, in the rat or other vertebrate species
Excerpt: At first it was thought that only the C-terminus (i.e., ANF) of ANF prohormone circulated. Before any portion of the rest of the prohormone was known to circulate Dr. Frossman patented the whole rat prohormone which he called Cardiodilatin and portion(s) thereof (U.S. Pat. No. 4,751,284). In this patent Dr. Frossman patented the rat sequence of the ANF prohormone. In his patent he stated that parts of the whole prohormone had activity if the C-terminal end (i.e., ANF) was attached to it. In publications he has stated that the rest of the rat prohormone only has activity if the C-terminus (i.e., ANF with its intact ring structure) of the rat prohormone is attached to it (Frossman W.G., Contr. Nephrol. 50:1-13, 1986) (see Attachment A). Dr. Frossman has never published that other peptide(s) originating from the rat ANF prohormone that he patented have any biologic activity by themselves. Dr. Frossman has further stated on page 11 of Attachment A "I think that the 28 a.a. […] It has been over 10 years since Frossmann submitted his patent and he has never published that any portion of cardiodilatin (i.e., rat ANF prohormone) has any biologic activity if the respective portion is not attached to the ANF portion of cardiodilatin.

[8] = period A, control period (before peptide)
[9] = period B, 1st 60min experimental period, 10 μg/kg bolus then 0.1 μg/kg/min
[10] = period C, 2nd 60min experimental period

Molecule: COc1ccc2cc([C@H](C)C(=O)O)ccc2c1 [Naproxen, reference compound]
- effect on the peptides' inhibition of renal medullary Na+-K+-ATPase ([1]; 0.5 mM): completely blocked each of these peptides'effects on renal medullary Na+-K+-ATPase

Molecule: H-NPMYNAVSNADLMDFKNLLDHLEEKMPLED-OH [proANF 1-30, H-Asn-Pro-Met-Tyr-Asn-Ala-Val-Ser-Asn-Ala-Asp-Leu-Met-Asp-Phe-Lys-Asn-Leu- Leu-Asp-His-Leu-Glu-Glu-Lys-Met-Pro-Leu-Glu-Asp-OH]
- increase in cyclic GMP levels over baseline levels (porcine aorta): four-to-five
- vasodilation (porcine aorta): cause vasodilation
- cyclic GMP levels [2]: increase cyclic GMP levels
- UNa V, urinary sodium excretion rate (Munich-Wistar rats; [8]): 36.37 ± 8.09 μeq-min^-1 -g kidney wt^-1
- UNa V, urinary sodium excretion rate (Munich-Wistar rats; [9]): 224.30 ± 60.34 μeq-min^-1 -g kidney wt^-1
- UNa V, urinary sodium excretion rate (Munich-Wistar rats; [10]): 384.98 ± 124.39 μeq-min^-1 -g kidney wt^-1
- particulate guanylate cyclase activity [3]: enhance particulate guanylate cyclase
- negative ionotropic (slowing heartbeat) effect of Verapamil [4]: can overcome the negative ionotropic (slowing heartbeat) effect
- increase of urine flow (healthy human subjects): 4-12 fold
- urine volume / urine flow (in words) (healthy human subjects): increase in urine volume
- sodium excretion compared to baseline (in words) (healthy human subjects): significantly (P<0.05) increased sodium excretion
- systolic and diastolic blood pressures (healthy human subjects): decreasing systolic and diastolic blood pressures
- diuretic properties (in words) [5]: stronger diuretic properties than ANF
- urine output increase at the end of the 60 minute infusion [5]: 3- to 6 fold
- increase of sodium excretion [5]: three-to-eight
- inhibition of renal medullary Na+-K+-ATPase activity [1]: Inhibition of renal medullary Na+-K+-ATPase activity

Molecule: H-SSDRSALLKSKLRALLTAPR-OH [proANF 79-98, H-Ser-Ser-Asp-Arg-Ser-Ala-Leu-Leu-Lys-Ser-Lys-Leu-Arg-Ala-Leu-Leu-Thr-Ala- Pro-Arg-OH]
- increase in cyclic GMP levels over baseline levels (porcine aorta): four-to-five
- vasodilation (porcine aorta): cause vasodilation
- cyclic GMP levels [2]: increase cyclic GMP levels
- UNa V, urinary sodium excretion rate (Munich-Wistar rats; [8]): 90.88 ± 77.76 μeq-min^-1 -g kidney wt^-1
- UNa V, urinary sodium excretion rate (Munich-Wistar rats; [9]): 363.98 ± 261.85 μeq-min^-1 -g kidney wt^-1
- UNa V, urinary sodium excretion rate (Munich-Wistar rats; [10]): 564.22 ± 315.48 μeq-min^-1 -g kidney wt^-1
- particulate guanylate cyclase activity [3]: enhance particulate guanylate cyclase
- negative ionotropic (slowing heartbeat) effect of Verapamil [4]: can overcome the negative ionotropic (slowing heartbeat) effect
- increase of urine flow (healthy human subjects): 4-12 fold
- urine volume / urine flow (in words) (healthy human subjects): increase in urine volume
- sodium excretion compared to baseline (in words) (healthy human subjects): each of these respective peptides except proANF 79-98 significantly (P<0.05) increased sodium excretion
- systolic and diastolic blood pressures (healthy human subjects): decreasing systolic and diastolic blood pressures
- diuretic properties (in words) [5]: stronger diuretic properties than ANF
- urine output increase at the end of the 60 minute infusion [5]: 3- to 6 fold
- increase of sodium excretion [5]: no significant increase in sodium excretion
- inhibition of renal medullary Na+-K+-ATPase activity [1]: Inhibition of renal medullary Na+-K+-ATPase activity

Molecule: angiotensin II [comparison peptide in the Na+-K+-ATPase test, reference compound]
- inhibition of renal medullary Na+-K+-ATPase activity [1]: Inhibition of renal medullary Na+-K+-ATPase activity

Molecule: human atrial natriuretic factor (ANF) (from UniProt P01160) (peptide)
- half maximal activation (ED50) of guanylate cyclase activity [6]: 10 nM

Molecule: rat proANF 1-30: peptide consisting of amino acids 1-30 from the rat ANF prohormone (NPVYSAVSNTDLMDFKNLLDHLEEKMPVED; UniProt P01161 25-54, looked up, fragment)
- biologic effect(s) (blood pressure lowering, sodium excretion or diuretic effects) [7]: no biologic effect(s)

Molecule: rat proANF 31-67: peptide consisting of amino acids 31-67 from the rat ANF prohormone (EVMPPQALSEQTDEAGAALSSLSEVPPWTGEVNPSQR; UniProt P01161 55-91, looked up, fragment)
- biologic effect(s) (blood pressure lowering, sodium excretion or diuretic effects) [7]: no biologic effect(s)

Molecule: rat proANF 79-98: peptide consisting of amino acids 79-98 from the rat ANF prohormone (PSDRSALLKSKLRALLAGPR; UniProt P01161 103-122, looked up, fragment)
- biologic effect(s) (blood pressure lowering, sodium excretion or diuretic effects) [7]: no biologic effect(s)

B1: human pro-ANF (79-98) (peptide)
peptide: H-SSDRSALLKSKLRALLTAPR-OH
- half maximal activation (ED50) of guanylate cyclase activity [6]: 10 nM
